Laboratory results: US9192602B2, “Indication of anthra[2,1,c][1,2,5]thiadiazole-6,11-dione compound in alleviating pain” (NATIONAL CENTRAL UNIVERSITY, priority 2014, dated 2015)

How the values were obtained:
human cancer cell lines = conditions: NCI panel (leukemia, non-small cell lung cancer, colon cancer, etc.); Taiwan Patent application 097112087; cited from earlier work
CD-1 mice [1] = assay: Nociceptive pain: acute pain induced by acid solution, von Frey mechanical hyperalgesia test; format: in vivo
Experimental: Anthra[2,1-c][1,2,5]thiadiazole-6,11-dione (NSC745885, B1) was intraplantarly injected into the right hind paws of 8 to 12-week-old CD-1 mice. 5 minutes after the injection, 25 μL of pH 5.0 acid solution was intraplantarly injected into each of the mice. About 60 minutes later, the mice were directly tested with the hypersensitivity to mechanical stimuli using von Frey filaments (Touch-Test North Coast Medical, Inc., Margan Hill, Calif.). The control group was conducted under the same conditions except it was treated with a compound-free saline. […]
(§1) 2.2 μg/kg of the compound was administered to the mice by intraplantar injection about 5 minutes prior to the injection of the acid solution. An hour after the injection of the acid, the hypersensitivity of the mice to mechanical stimuli was measured using von Frey filaments (Touch-Test North Coast Medical, Inc., Margan Hill, Calif.). […] 60 minutes after the mice were administered with the compound, the mechanical hyperalgesia was assessed through the measurement of paw withdrawal frequencies by a sequential series of von Frey filaments of weights 0.6, 1.0, 1.4, 2.0 and 4.0 g applied perpendicularly to the plantar surface of the paw. […] The occurrence of paw withdrawal resulting from the stimulation or removing the stimulation for each trial was quantified as a percentage response frequency for each monofilament. […]

mice = assay: Inflammatory pain: chronic inflammatory pain induced by Complete Freund's Adjuvant (CFA), von Frey test; format: in vivo; conditions: 60 min after CFA
Experimental: When 50% CFA was intraplantarly injected into the mouse, paw edema and chronic mechanical hyperalgesia were developed in the tested mice. Different dosages of the anthra[2,1-c][1,2,5]thiadiazole-6,11-dione compound, 0.22, 2.2, 22 μg/kg were intraplantarly injected into mouse hindpaw, followed by 50% CFA injection. At 60 minutes after the CFA injection, the pain sensitivity of the mice was measured by mechanical stimulation using von Frey filaments.
as §1, with “monofilament. When the frequency was more than 50%, the weight of the von Frey filaments was determined as the paw withdrawal threshold (PWT).” for “monofilament.”

CD-1 mice [2] = assay: Neuropathic pain: chronic constriction injury (CCI) of the sciatic nerve, von Frey mechanical hyperalgesia test; format: in vivo
Description: The assessment of the effectiveness of the compound for alleviating neuropathic pain used the animal model of chronic constriction injury (CCI) of the sciatic nerve, which was established by Bennett and Xie (1988). After the surgery, the mice developed long-lasting hypersensitivity to mechanical stimuli (chronic mechanical hyperalgesia) even being lightly touched. The mechanical hyperalgesia test was used to evaluate the analgesic effect of the compound.
The mice, after a week following the ligation surgery, were intraplantarly injected with a series of different dosages of the compound, 0.22, 2.2, 22 μg/kg or the mice were injected with 2.2 μg/kg of compound intrathecally, or with 44 μg/kg of the compound intraperitoneally. The hypersensitivity to mechanical stimuli was measured using von Frey filaments at 60 minutes after the injection. The mice injected with saline following surgery were the control group and the other mice injected with gabapentin following surgery were the positive control group.
2.2 μg/kg of the compound was administered to the mice by intraplantar injection about 5 minutes prior to the injection of the acid solution. An hour after the injection of the acid, the hypersensitivity of the mice to mechanical stimuli was measured using von Frey filaments (Touch-Test North Coast Medical, Inc., Margan Hill, Calif.). The mice were placed in transparent plastic chambers (10×8×10 cm) on a metal mesh floor at least 30 minutes per day for 2 days to acclimatize them to the testing room prior to the test. 60 minutes after the mice were administered with the compound, the mechanical hyperalgesia was assessed through the measurement of paw withdrawal frequencies by a sequential series of von Frey filaments of weights 0.6, 1.0, 1.4, 2.0 and 4.0 g applied perpendicularly to the plantar surface of the paw. The paw was briefly stimulated with force sufficient to slightly bend the filaments and a single trial consisted of repeated applications of the von Frey filaments five times, each application lasting for about 5 seconds. The occurrence of paw withdrawal resulting from the stimulation or removing the stimulation for each trial was quantified as a percentage response frequency for each monofilament. When the frequency was more than 50%, the weight of the von Frey filaments was determined as the paw withdrawal threshold (PWT). To make sure all the mice were under normal physical conditions, all housing conditions complied with general feeding standards, and the temperature and illumination were maintained in a suitable range.
According to the method described by Bennett and Xie, Pain, 1988, 33, 87-107, 8 to 12-week-old CD-1 mice were subjected to chronic constriction injury (CCI) of the sciatic nerve, which is an animal model inducing chronic neuropathic pain. To anesthetize the mice, each of the mice was injected with 240 mg/kg of 2,2,2-tribromoethanol (Avertin). Then three ligatures were loosely tied around the sciatic nerve of the mouse with chromic gut. The surgical procedure for the Sham (non ligation) control group was identical to that mentioned above except that the sciatic nerves were not ligated. A week after the mice in the experimental (CCI+compound) group had chronic constriction injury of sciatic nerves, the compound was intraplantarly, intrathecally, or intraperitoneally injected into the mice. 60 minutes after the injection, the mice were directly subjected to the hypersensitivity test to mechanical stimuli. The mice under the surgery treated with saline were the CCI group; the mice treated with gabapentin were the positive control (CCI+Gabapentin) group.

SMILES: O=C1c2ccccc2C(=O)c2c1ccc1nsnc21 [B1, Anthra[2,1-c][1,2,5]thiadiazole-6,11-dione]
- anti-proliferative activity against human cancer cell lines (human cancer cell lines): shows anti-proliferative activity against human cancer cell lines
- paw withdrawal threshold (PWT) (CD-1 mice [1]; 2.2 μg/kg intraplantar, 5 min before 25 μL pH 5.0 acid solution, measured about 60 min later, acid only 1.1±0.065 g, control 4.0±0 g): 3.3 ± 0.67 g
- paw withdrawal threshold (PWT) (CD-1 mice [1]; sole injection of the compound without the acid solution, did not induce pain): 4.0 ± 0 g
- paw withdrawal threshold (PWT) (mice; 2.2 μg/kg intraplantar 5 min before 50% CFA, CFA only 0.4±0.033 g, control 3.6±0.202 g): 1.6 ± 0.15 g
- paw withdrawal threshold (PWT) (mice; 22 μg/kg intraplantar 5 min before 50% CFA): 3.0 ± 0.45 g
- development of tolerance to the compound (CD-1 mice [2]; 2.2 μg/kg intraplantar once every week for three weeks): no obvious indication that the mice developed tolerance
- paw withdrawal threshold (PWT) (CD-1 mice [2]; 2.2 μg/kg intraplantar once every week for three weeks, first week): 2.5 ± 0.8 g
- paw withdrawal threshold (PWT) (CD-1 mice [2]; 2.2 μg/kg intraplantar once every week for three weeks, second week): 2.0 ± 0 g
- paw withdrawal threshold (PWT) (CD-1 mice [2]; 2.2 μg/kg intraplantar once every week for three weeks, third week): 2.7 ± 0.67 g
- paw withdrawal threshold (PWT) (CD-1 mice [2]; 2.2 μg/kg intraplantar, one week after CCI surgery, 60 min after injection, CCI only 0.9±0.23 g, control 3.6±0.29 g): 2.5 ± 0.8 g
- paw withdrawal threshold (PWT) (CD-1 mice [2]; 2.2 μg/kg intrathecal, one week after CCI surgery, 60 min after injection): 4.0 g
- paw withdrawal threshold (PWT) (CD-1 mice [2]; 22 μg/kg intraplantar, one week after CCI surgery, 60 min after injection): 4.0 ± 0.0 g
- inhibition of mechanical hyperalgesia induced by CCI of the sciatic nerve (CD-1 mice [2]; 44 μg/kg intraperitoneal): completely inhibited mechanical hyperalgesia

SMILES: NCC1(CC(=O)O)CCCCC1 [gabapentin, reference compound]
- dosage required to inhibit chronic mechanical hyperalgesia caused by CCI (CD-1 mice [2]; intraperitoneal injection): at least 15,000 μg/kg
